In article PMC9948168, “Vanillin-Based Indolin-2-one Derivative Bearing a Pyridyl Moiety as a Promising Anti-Breast Cancer Agent via Anti-Estrogenic Activity” (ACS Omega, 2023):
Where “and” joins values, the source holds several entries; their conditions need not be identical. Equal values may be shown once.

Legend:
BT-549 = experiment: NCI-60 one-dose screening; assay type: cell-based; settings: Homo sapiens, BT-549, Breast Cancer, read-out: GI (%)
CAKI-1 = experiment: NCI-60 one-dose screening; assay type: cell-based; settings: Homo sapiens, CAKI-1, Renal Cancer, read-out: GI (%)
DU-145 = experiment: NCI-60 one-dose screening; assay type: cell-based; settings: Homo sapiens, DU-145, Prostate Cancer, read-out: GI (%)
HCT-116 = experiment: NCI-60 one-dose screening; assay type: cell-based; settings: Homo sapiens, HCT-116, Colon Cancer, read-out: GI (%)
HOP-62 = experiment: NCI-60 one-dose screening; assay type: cell-based; settings: Homo sapiens, HOP-62, Non-Small Cell Lung Cancer, read-out: GI (%)
IGROV1 = experiment: NCI-60 one-dose screening; assay type: cell-based; settings: Homo sapiens, IGROV-1, IGROV1, Ovarian Cancer, read-out: GI (%)
K-562 = experiment: NCI-60 one-dose screening; assay type: cell-based; settings: Homo sapiens, K562, K-562, Leukemias, read-out: GI (%)
M14 = experiment: NCI-60 one-dose screening; assay type: cell-based; settings: Homo sapiens, M14, Melanoma, read-out: GI (%)
MALME-3M = experiment: NCI-60 one-dose screening; assay type: cell-based; settings: Homo sapiens, Melanoma, read-out: GI (%)
MDA-MB-231/ATCC = experiment: NCI-60 one-dose screening; assay type: cell-based; settings: Homo sapiens, Breast Cancer, read-out: GI (%)
MDA-MB-468 = experiment: NCI-60 one-dose screening; assay type: cell-based; settings: Homo sapiens, MDA-MB-468, Breast Cancer, read-out: GI (%)
NCI-H226 = experiment: NCI-60 one-dose screening; assay type: cell-based; settings: Homo sapiens, NCI-H226, Non-Small Cell Lung Cancer, read-out: GI (%)
NCI-H522 = experiment: NCI-60 one-dose screening; assay type: cell-based; settings: Homo sapiens, NCI-H522, Non-Small Cell Lung Cancer, read-out: GI (%)
RXF 393 = experiment: NCI-60 one-dose screening; assay type: cell-based; settings: Homo sapiens, RXF 393, Renal Cancer, read-out: GI (%)
SF-295 = experiment: NCI-60 one-dose screening; assay type: cell-based; settings: Homo sapiens, SF-295, CNS Cancer, read-out: GI (%)
SK-MEL-28 = experiment: NCI-60 one-dose screening; assay type: cell-based; settings: Homo sapiens, SK-MEL-28, Melanoma, read-out: GI (%)
SK-MEL-5 = experiment: NCI-60 one-dose screening; assay type: cell-based; settings: Homo sapiens, SK-MEL-5, Melanoma, read-out: GI (%)
SK-OV-3 = experiment: NCI-60 one-dose screening; assay type: cell-based; settings: Homo sapiens, SK-OV-3, Ovarian Cancer, read-out: GI (%)
SN12C = experiment: NCI-60 one-dose screening; assay type: cell-based; settings: Homo sapiens, Renal Cancer, read-out: GI (%)
SNB-75 = experiment: NCI-60 one-dose screening; assay type: cell-based; settings: Homo sapiens, SNB-75, CNS Cancer, read-out: GI (%)
SW-620 = experiment: NCI-60 one-dose screening; assay type: cell-based; settings: Homo sapiens, SW-620, Colon Cancer, read-out: GI (%)
T-47D = experiment: NCI-60 one-dose screening; assay type: cell-based; settings: Homo sapiens, T47D, Breast Cancer, read-out: GI (%)
UACC-257 = experiment: NCI-60 one-dose screening; assay type: cell-based; settings: Homo sapiens, UACC-257, Melanoma, read-out: GI (%)
UACC-62 = experiment: NCI-60 one-dose screening; assay type: cell-based; settings: Homo sapiens, UACC-62, Melanoma, read-out: GI (%)
ER-α = experiment: In vitro ER-α inhibitory ELISA assay in MCF-7 cells; assay type: cell-based, human; settings: 1 μg/mL, 24 h
Description: An in vitro ER-α inhibitory ELISA assay was performed using a Human ER-α/Estrogen Receptor ELISA Kit (Sandwich ELISA) (Lifespan Biosciences, Seattle, Washington, USA) as previously described.[64] The cells were plated at a density of 2000 cells/well in a 96-well plate. […] After 24 h, the pellets of the cells were collected by centrifugation. The cells were washed three times with PBS and then lysed by ultrasonication, and the supernatant was collected for testing. The wells were loaded with 100 μL of either standards or samples and incubated for 90 min at 37 °C. The wells were washed with 1× wash buffer for removing any unbound sample and 100 μL 1× biotinylated detection antibody was next put in and incubated for 1 h at 37 °C. The wells were rewashed with 1× wash buffer, and 100 μL 1× HRP conjugate was then added and incubated for 30 min at 37 °C. A third wash with 1× wash buffer was done and 90 μL of the TMB substrate was added. The TMB substrate reacted with the HRP enzyme, ensuring a color development, and the reaction was terminated using 50 μL of a stop solution. Finally, the optical density (OD) of the well was measured at a wavelength of 450 nm ± 2 nm. The OD of an unknown sample was calculated by correlation with a standard curve generated by standards with known concentrations.

Row | Compound | inhibition at 10 µM (BT-549) [%] | inhibition at 10 µM (CAKI-1) [%] | inhibition at 10 µM (DU-145) [%] | inhibition at 10 µM (HCT-116) [%] | inhibition at 10 µM (HOP-62) [%] | inhibition at 10 µM (IGROV1) [%] | inhibition at 10 µM (K-562) [%] | inhibition at 10 µM (M14) [%] | inhibition at 10 µM (MALME-3M) [%] | inhibition at 10 µM (MDA-MB-231/ATCC) [%] | inhibition at 10 µM (MDA-MB-468) [%] | inhibition at 10 µM (NCI-H226) [%] | inhibition at 10 µM (NCI-H522) [%] | inhibition at 10 µM (RXF 393) [%] | inhibition at 10 µM (SF-295) [%] | inhibition at 10 µM (SK-MEL-28) [%] | inhibition at 10 µM (SK-MEL-5) [%] | inhibition at 10 µM (SK-OV-3) [%] | inhibition at 10 µM (SN12C) [%] | inhibition at 10 µM (SNB-75) [%] | further results
1 | COc1cc(C=C2C(=O)Nc3ccc(Cl)cc32)ccc1OCc1ccc(F)cc1 (mixture of isomers) [6h] | -1.21 | 16.7 | 10.5 | 52.1 | 7.95 | 22.7 | 11.4 | 3.61 | 17.7 | 13.1 | 12.8 | 4.31 | 12.1 | 6.55 | 2.31 | -3.14 | 10.8 | -9.69 | 11.1 | 22.3 | inhibition at 10 µM (SW-620): 40.3%; inhibition at 10 µM (T-47D): 19.5%; inhibition at 10 µM (UACC-257): -1.98%; inhibition at 10 µM (UACC-62): 29.8%
2 | COc1cc(/C=C2/C(=O)Nc3ccc(Cl)cc32)ccc1OCc1ccccc1 [6f] | -5.93 | 7.2 | -11.6 | -13 | 6.15 | 1.82 | -8.73 | 0.98 | -1.28 | 7.87 | 5.59 | 1.24 | 9.25 | -11.6 | -0.63 | -4.79 | 1.24 | -9.53 | 3.2 | 7.95 | inhibition at 10 µM (SW-620): 4.03%; inhibition at 10 µM (T-47D): 5.17%; inhibition at 10 µM (UACC-257): -3.74%; inhibition at 10 µM (UACC-62): 11.5%
3 | COc1cc(/C=C2/C(=O)Nc3cc(Cl)ccc32)ccc1O [5c] | 23.8 | 31.6 | -1.46 | 30.9 | 29.2 | 36.6 | 19.6 | 21.2 | 8.69 | 50.8 | 28.5 | 10 | 25.4 | 6.84 | 15.8 | 1.11 | 29.1 | 2.42 | 15.2 | 59.5 | inhibition at 10 µM (SW-620): 3.92%; inhibition at 10 µM (T-47D): 49.2%; inhibition at 10 µM (UACC-257): 2.41%; inhibition at 10 µM (UACC-62): 41.5%
4 | COc1cc(C=C2C(=O)Nc3ccc(Cl)cc32)ccc1OCc1ccc(Cl)cc1 (mixture of isomers) [6g] | 4.38 | 24.2 | 6.57 | 49 | 13.1 | 37.5 | 10.4 | 2.22 | 18.7 | 21.6 | 17.2 | 17.1 | 6.96 | 9.18 | 6.36 | -3.4 | 8.56 | 2.96 | 9.18 | 28.1 | inhibition at 10 µM (SW-620): 23%; inhibition at 10 µM (T-47D): 10%; inhibition at 10 µM (UACC-257): -8.01%; inhibition at 10 µM (UACC-62): 27%
5 | COc1cc(C=C2C(=O)Nc3ccccc32)ccc1O (mixture of isomers) [5a] | 25.6 | 36 | 11.2 | 24.2 | 20.7 | 25.6 | 9.79 | 23.5 | 7.51 | 33.7 | 32.7 | -2.09 | 27.4 | -6.54 | 7.71 | 6.91 | 17.3 | 5.29 | 16 | 50.6 | inhibition at 10 µM (SW-620): -0.49%; inhibition at 10 µM (T-47D): 31.6%; inhibition at 10 µM (UACC-257): 11.3%; inhibition at 10 µM (UACC-62): 34.6%
6 | COc1ccc(COc2ccc(/C=C3/C(=O)Nc4ccc(Cl)cc43)cc2OC)cc1 [6i] | -13.3 | 15.4 | -12.1 | 4.18 | 3.08 | 5.39 | 6.52 | 0.06 | 2.07 | -0.06 | 5.64 | 3.61 | 5.36 | -7.98 | -0.88 | -6.77 | 0.21 | -8.16 | 1.92 | 11 | inhibition at 10 µM (SW-620): 6.24%; inhibition at 10 µM (T-47D): -5.11%; inhibition at 10 µM (UACC-257): -2.09%; inhibition at 10 µM (UACC-62): 17.9%
7 | COc1cc(C=C2C(=O)Nc3ccc(Cl)cc32)ccc1O (mixture of isomers) [5b] | 25 | 41 | 33.1 | 21.2 | 16.5 | 16.2 | 28.1 | 18.4 | 3.24 | 36.7 | 31.3 | 2.25 | 20.1 | -7.81 | 8.92 | 5.35 | 31.5 | -6.08 | 14.6 | 50.1 | inhibition at 10 µM (SW-620): -3.74%; inhibition at 10 µM (T-47D): 40.9%; inhibition at 10 µM (UACC-257): 13.5%; inhibition at 10 µM (UACC-62): 87.1%
8 | COc1cc(C=C2C(=O)Nc3ccc(Cl)cc32)ccc1OCc1ccccn1 (mixture of isomers) [6j] | -8.61 | 24.4 | -7.75 | -2.75 | 5.56 | 13.4 | 5.33 | -0.51 | 1.35 | 4.62 | 14.6 | 6.59 | 4.56 | -0.84 | 6.2 | -15.1 | 3.73 | -4.32 | 3.96 | 14.8 | inhibition at 10 µM (SW-620): 2.21%; inhibition at 10 µM (T-47D): 9.54%; inhibition at 10 µM (UACC-257): -5.04%; inhibition at 10 µM (UACC-62): 21.4%; ER-α pg/mL (mean ± SEM) (ER-α): 424.9 ± 17.2 pg/mL; inhibition (%) of ER-α (ER-α; compared to control): 62% and 62.4%
